ChEMBL document CHEMBL5537125, “Discovery of C-3 isoxazole substituted thiochromone S,S-dioxide derivatives as potent and selective inhibitors for monoamine oxidase B (MAO-B)” (Eur J Med Chem, 2024)
Active and inactive are the calls of the source. The calls are words filed in the database; no cut-off is given here.

Key:
[1] = target: T1, Amine oxidase [flavin-containing] B (Homo sapiens, UniProt P27338); test: Inhibition of human recombinant MAO-B using tyramine as substrate incubated for 20 mins by fluorometric assay
T1 sequence (P27338 whole entry): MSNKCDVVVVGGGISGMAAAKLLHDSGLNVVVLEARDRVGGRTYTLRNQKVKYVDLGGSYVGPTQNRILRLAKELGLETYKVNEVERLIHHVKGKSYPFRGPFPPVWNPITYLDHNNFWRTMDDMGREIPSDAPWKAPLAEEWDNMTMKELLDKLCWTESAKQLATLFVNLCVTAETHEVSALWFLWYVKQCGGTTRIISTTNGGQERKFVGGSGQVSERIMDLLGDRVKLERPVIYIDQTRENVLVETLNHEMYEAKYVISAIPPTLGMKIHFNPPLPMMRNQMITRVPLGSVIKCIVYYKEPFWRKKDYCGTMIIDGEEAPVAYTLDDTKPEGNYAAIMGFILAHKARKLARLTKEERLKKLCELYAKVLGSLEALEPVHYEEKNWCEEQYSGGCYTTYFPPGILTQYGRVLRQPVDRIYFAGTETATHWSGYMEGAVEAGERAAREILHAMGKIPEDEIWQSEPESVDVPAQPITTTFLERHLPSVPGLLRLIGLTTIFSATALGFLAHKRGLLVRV

[2] = n-Octanol/water partition coefficient, logP of the compound at pH 7.4 by HPLC analysis; format: physicochemical
[3] = Selectivity index, ratio of IC50 for MAO-A (unknown origin) to IC50 for human recombinant MAO-B
[4] = target: T1, Amine oxidase [flavin-containing] B; test: Inhibition of human MAO-B
[5] = Solubility of compound in DMSO; format: physicochemical
[6] = Solubility of compound in phosphate buffer; format: physicochemical
[7] = target: T2, Amine oxidase [flavin-containing] A (Homo sapiens, UniProt P21397); test: Inhibition of human recombinant MAO-A using tyramine as substrate at 10 uM incubated for 20 mins by fluorometric assay relative to control
T2 sequence (P21397 whole entry): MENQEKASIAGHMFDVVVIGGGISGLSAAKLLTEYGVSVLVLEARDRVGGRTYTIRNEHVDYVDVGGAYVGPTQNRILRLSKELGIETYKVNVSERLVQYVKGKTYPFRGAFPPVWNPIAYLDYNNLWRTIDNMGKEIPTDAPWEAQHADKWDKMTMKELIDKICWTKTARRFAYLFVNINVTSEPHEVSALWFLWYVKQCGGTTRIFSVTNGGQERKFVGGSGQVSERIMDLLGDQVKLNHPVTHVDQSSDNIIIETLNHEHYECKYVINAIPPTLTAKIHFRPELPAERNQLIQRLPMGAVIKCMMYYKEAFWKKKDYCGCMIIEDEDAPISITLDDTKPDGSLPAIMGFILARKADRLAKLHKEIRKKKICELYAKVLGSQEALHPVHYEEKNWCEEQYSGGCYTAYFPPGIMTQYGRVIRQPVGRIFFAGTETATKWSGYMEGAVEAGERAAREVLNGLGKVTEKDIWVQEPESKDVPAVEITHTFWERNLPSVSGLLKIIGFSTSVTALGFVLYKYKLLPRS

[8] = Cytotoxicity against differentiated human SH-SY5Y cells assessed as cell proliferation at 4 uM incubated for 24 hrs by MTT assay relative to control; format: toxicity, cell-based; conditions: read-out: Activity
[9] = Cytotoxicity against differentiated human SH-SY5Y cells assessed as cell proliferation at 0.5 uM incubated for 24 hrs by MTT assay relative to control; format: toxicity, cell-based; conditions: read-out: Activity
HCT-116 = test: Antiproliferative activity against human HCT-116 cells assessed as reduction in cell viability incubated for 24 hrs by MTT assay; format: functional, cell-based; conditions: HCT-116, 24 h
MCF7 = test: Antiproliferative activity against human MCF7 cells assessed as reduction in cell viability incubated for 24 hrs by MTT assay; format: functional, cell-based; conditions: MCF7, 24 h
SH-SY5Y [10] = test: Cytotoxicity against differentiated human SH-SY5Y cells assessed as reduction in cell viability by measuring MTT reduction at 4 uM incubated for 24 hrs by MTT assay relative to control; format: toxicity, cell-based
VSMC [11] = test: Cytotoxicity against differentiated human VSMC cells assessed as reduction in cell viability at 0.5 to 4 uM incubated for 24 hrs by MTT assay; format: toxicity, cell-based; conditions: dose 0.5-4 µM
HepG2 [12] = test: Antiproliferative activity against human HepG2 cells assessed as reduction in cell viability incubated for 24 hrs by MTT assay; format: functional, cell-based; conditions: HepG2, 24 h
MGC-803 [13] = test: Antiproliferative activity against human MGC-803 cells assessed as reduction in cell viability incubated for 24 hrs by MTT assay; format: functional, cell-based; conditions: MGC-803, 24 h
[14] = target: T2, Amine oxidase [flavin-containing] A; test: Inhibition of human recombinant MAO-A using tyramine as substrate incubated for 20 mins by fluorometric assay
Homo sapiens = species: Homo sapiens; test: Selectivity index, ratio of IC50 for human recombinant MAO-A to IC50 for human recombinant MAO-B
HepG2 [15] = test: Antiproliferative activity against human HepG2 cells assessed as reduction in cell viability at 0.5 to 128 uM incubated for 24 hrs by MTT assay; format: functional, cell-based; conditions: dose 0.5-128 µM
MGC-803 [16] = test: Antiproliferative activity against human MGC-803 cells assessed as reduction in cell viability at 0.5 to 128 uM incubated for 24 hrs by MTT assay; format: functional, cell-based; conditions: dose 0.5-128 µM
SH-SY5Y [17] = test: Induction of ROS production in human SH-SY5Y cells assessed as increase in oxidative damage at 2 to 4 uM incubated for 24 hrs by DCFH-DA staining based fluorescence microscopic analysis; format: functional, cell-based; conditions: dose 2-4 µM
VSMC [18] = test: Cytotoxicity against human VSMC cells assessed as reduction in cell viability at 0.5 uM incubated for 24 hrs by MTT assay relative to control; format: toxicity, cell-based

O=C1C(c2cc(-c3ccccc3)no2)=CS(=O)(=O)c2ccccc21
IC50 [1]: 0.896 µM
logD [2]: 3.26

Cc1ccccc1-c1cc(C2=CS(=O)(=O)c3ccccc3C2=O)on1
IC50 [1]: 0.137 µM
logD [2]: 2.69

Cc1cccc(-c2cc(-c3csc4ccccc4c3=O)on2)c1
IC50 [1]: 0.53 µM
logD [2]: 3.44

Cc1ccc(-c2cc(C3=CS(=O)(=O)c4ccccc4C3=O)on2)cc1
IC50 [1]: 0.0268 µM
logD [2]: 2.77

O=c1c(-c2cc(-c3ccccc3)no2)csc2ccccc12
IC50 [1]: 1.23 µM
logD [2]: 3.72

COc1ccc(-c2cc(-c3csc4ccccc4c3=O)[nH]n2)cc1
IC50 [1]: 0.0185 µM
logD [2]: 3.43

CC(=O)c1ccc(OCc2ccccc2)cc1O
Ratio IC50 [3]: 1190
IC50 [4]: 0.007 µM

Cc1cccc(-c2cc(C3=CS(=O)(=O)c4ccccc4C3=O)on2)c1
IC50 [1]: 0.0982 µM
logD [2]: 3.23

COc1ccc(-c2cc(-c3csc4ccccc4c3=O)on2)cc1
solubility [5]: Insoluble
solubility [6]: Insoluble

O=c1c(-c2cc(-c3ccc(F)cc3)no2)csc2ccccc12
solubility [5]: Insoluble
solubility [6]: Insoluble

O=C1C(c2cc(-c3cccc(Cl)c3)no2)=CS(=O)(=O)c2ccccc21
IC50 [1]: 0.0226 µM
logD [2]: 4.17

O=C1C(c2cc(-c3ccc(F)cc3)no2)=CS(=O)(=O)c2ccccc21
IC50 [1]: 0.149 µM
logD [2]: 2.43

O=C1C(c2cc(-c3ccccc3C(F)(F)F)no2)=CS(=O)(=O)c2ccccc21
inhibition at 10 µM [7]: 3.8%
viability at 24 h, 4 µM [8]: 119%
viability at 24 h, 0.5 µM [9]: 108%
IC50 (HCT-116): 52.1 µM
IC50 (MCF7): 16 µM
Activity (SH-SY5Y [10]): < 90%
Activity (VSMC [11]): Non-Toxic
IC50 (HepG2 [12]): 99.3 µM
IC50 [1]: 0.0023 µM
IC50 (MGC-803 [13]): 37.7 µM
logD [2]: 2.63

O=c1c(-c2cc(-c3cccc(C(F)(F)F)c3)no2)csc2ccccc12
IC50 [1]: 0.0351 µM
IC50 [14]: 161 µM
Ratio IC50 (Homo sapiens): 4580
logD [2]: 3.71

O=c1c(-c2cc(-c3ccc(C(F)(F)F)cc3)no2)csc2ccccc12
IC50 [1]: 0.0113 µM
IC50 [14]: 85.4 µM
Ratio IC50 (Homo sapiens): 7580
logD [2]: 2.55

Cc1ccccc1-c1cc(-c2csc3ccccc3c2=O)on1
IC50 [1]: 0.109 µM
logD [2]: 3.99

O=c1c(-c2cc(-c3ccccc3C(F)(F)F)no2)csc2ccccc12
viability at 24 h, 4 µM [8]: 121%
IC50 (MCF7): 37.9 µM
Activity (HepG2 [15]): inactive
Activity (SH-SY5Y [10]): < 90%
Activity (VSMC [11]): Non-Toxic
IC50 [1]: 0.002 µM
IC50 [14]: 21.2 µM
Activity (MGC-803 [16]): inactive
logD [2]: 4.37

O=c1c(-c2cc(-c3cccc(Cl)c3)no2)csc2ccccc12
solubility [5]: Insoluble
solubility [6]: Insoluble

COc1cccc(-c2cc(-c3csc4ccccc4c3=O)on2)c1
solubility [5]: Insoluble
solubility [6]: Insoluble

O=c1c(-c2cc(-c3cccc(F)c3)no2)csc2ccccc12
solubility [5]: Insoluble
solubility [6]: Insoluble

COc1cccc(-c2cc(C3=CS(=O)(=O)c4ccccc4C3=O)on2)c1
Activity (SH-SY5Y [17]): inactive
inhibition at 10 µM [7]: 1%
IC50 (HCT-116): 47 µM
IC50 (MCF7): 4.21 µM
Activity (VSMC [11]): Non-Toxic
IC50 (HepG2 [12]): 43.3 µM
IC50 [1]: 0.0051 µM
Activity (VSMC [18]): 111%
IC50 (MGC-803 [13]): 43 µM
logD [2]: 2.39

O=C1C(c2cc(-c3cccc(C(F)(F)F)c3)no2)=CS(=O)(=O)c2ccccc21
Activity (SH-SY5Y [17]): inactive
inhibition at 10 µM [7]: 10%
IC50 (HCT-116): 21.4 µM
IC50 (MCF7): 5.82 µM
Activity (SH-SY5Y [10]): < 90%
Activity (VSMC [11]): Non-Toxic
IC50 (HepG2 [12]): 83.2 µM
IC50 [1]: 0.0019 µM
Activity (VSMC [18]): 113%
IC50 (MGC-803 [13]): 39.6 µM
logD [2]: 3.39

Cc1ccc(C2=NOC(c3ccc(Cl)c(Cl)c3)C2)cc1 (stereo unspecified)
Ratio IC50 (Homo sapiens): > 8350

O=C1C(c2cc(-c3cccc(F)c3)no2)=CS(=O)(=O)c2ccccc21
IC50 [1]: 0.44 µM
logD [2]: 2.46

O=C1C(c2cc(-c3ccc(Cl)cc3)no2)=CS(=O)(=O)c2ccccc21
IC50 (HCT-116): 53.4 µM
IC50 (MCF7): 3.77 µM
Activity (SH-SY5Y [10]): < 90%
Activity (VSMC [11]): Non-Toxic
IC50 (HepG2 [12]): 55.9 µM
IC50 [1]: 0.0034 µM
IC50 [14]: 38.3 µM
Activity (MGC-803 [16]): inactive
logD [2]: 1.82

Cc1ccc(-c2cc(-c3csc4ccccc4c3=O)on2)cc1
IC50 [1]: 0.0622 µM
logD [2]: 3.2

O=c1c(-c2cc(-c3ccc(Cl)cc3)no2)csc2ccccc12
solubility [5]: Insoluble
solubility [6]: Insoluble

COc1ccc(-c2cc(C3=CS(=O)(=O)c4ccccc4C3=O)on2)cc1
viability at 24 h, 4 µM [8]: 120%
viability at 24 h, 0.5 µM [9]: 105%
IC50 (HCT-116): 78.1 µM
IC50 (MCF7): 6.02 µM
Activity (SH-SY5Y [10]): < 90%
Activity (VSMC [11]): Non-Toxic
IC50 (HepG2 [12]): 63.1 µM
IC50 [1]: 0.0034 µM
IC50 [14]: 64.4 µM
Activity (MGC-803 [16]): inactive
logD [2]: 2.62

O=C1C(c2cc(-c3ccc(C(F)(F)F)cc3)no2)=CS(=O)(=O)c2ccccc21
inhibition at 10 µM [7]: 2.6%
IC50 [1]: 0.0318 µM
logD [2]: 2.37
